Among the test systems are 786-0; NCI-H226; SR; HOP-92; ACHN; T47D; UACC-62; MDA-MB-435; MDA-N; SNB-19; NCI-H460; EKVX; SW-620; SNB-75; SF-539; NCI/ADR-RES; SK-MEL-28; RPMI-8226; OVCAR-8; Hs-578T.
What all share (assay): NCI-60 cell line screen, 48 h

Structures can show the parent of a compound that is named as a salt.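 Tested at 5 concentrations; 48 h exposure; 96-well plates; endpoints linearly interpolated, else capped at highest concentration. At the GI50, growth is halved.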 Calls of active or inactive are those of the source. Rule as the data show it: active = GI50 up to about 1.1 µM and inactive = higher.

In the case of `CC1=CSC(O)(c2ccc(Cl)cc2)c2noc(=O)n21` (stereo not drawn), the GI50 in the test with 786-0 is > 100 µM (inactive); in the test with NCI-H226 it was > 100 µM (inactive); in the test on SR it was 50.7 µM (inactive); in the test on HOP-92 it was 94.8 µM (inactive); in the test with ACHN, > 100 µM (inactive); in the test on T47D, 54.8 µM (inactive). Further, the GI50 in the test with UACC-62 is 44.9 µM (inactive); in the test with MDA-MB-435 it was 30.1 µM (inactive); in the test on MDA-N, 88.3 µM (inactive); in the test on SNB-19, > 100 µM (inactive); in the test on NCI-H460, 51.2 µM (inactive); in the test with EKVX, > 100 µM (inactive). The GI50 in the test with SW-620 is > 100 µM (inactive); with SNB-75 it was 61.7 µM (inactive); in the test on SF-539, > 100 µM (inactive); in the test with NCI/ADR-RES, 53.7 µM (inactive); in the test with SK-MEL-28, 29.2 µM (inactive); in the test on RPMI-8226, 57.7 µM (inactive). Moreover, the GI50 with OVCAR-8 is 97.7 µM (inactive).

Take `CC(=O)c1sc2c(c1OC(=O)c1ccc(Cl)cc1)c(=O)n(-c1ccccc1)c(=S)n2-c1ccccc1`: the GI50 was 3.52 µM (inactive) with 786-0; 1.59 µM (inactive) in the test with NCI-H226; 3.88 µM (inactive) in the test with SR; 3.25 µM (inactive) with HOP-92; 2.96 µM (inactive) in the test on ACHN; 12.2 µM (inactive) with T47D. Further, the GI50 in the test on UACC-62 was 15.7 µM (inactive); with MDA-MB-435, 4.14 µM (inactive); with SNB-19 it was 3.56 µM (inactive); in the test on NCI-H460 it was 4.86 µM (inactive); with EKVX, 11.4 µM (inactive); with SW-620, 12.7 µM (inactive). The GI50 in the test on SNB-75 was 2.99 µM (inactive); in the test with SF-539, 1.87 µM (inactive); in the test on NCI/ADR-RES, 4.73 µM (inactive); with Hs-578T it was 2.08 µM (inactive); with SK-MEL-28 it was 2.79 µM (inactive); with RPMI-8226, 1.21 µM (inactive). Also, the GI50 in the test on OVCAR-8 was 3.48 µM (inactive).

`CCOC(=O)C1=C(C)NC(C)=C(C(=O)OCC)C1c1ccc(C)cc1`: the GI50 with 786-0 is 20 µM (inactive); with NCI-H226, 35 µM (inactive); with HOP-92 it was 13.1 µM (inactive); with ACHN it was 43 µM (inactive); in the test on T47D it was 39.9 µM (inactive); with UACC-62, 39.4 µM (inactive). The GI50 was 35.4 µM (inactive) in the test with MDA-MB-435; 31.8 µM (inactive) with MDA-N; 63.1 µM (inactive) in the test with SNB-19; 22.9 µM (inactive) in the test with NCI-H460; 42.7 µM (inactive) in the test on EKVX; 45.8 µM (inactive) in the test on SW-620. The GI50 with SNB-75 is 24.8 µM (inactive); with SF-539, 37.1 µM (inactive); in the test on Hs-578T it was 39.2 µM (inactive); in the test on SK-MEL-28 it was > 100 µM (inactive); in the test on RPMI-8226, 30.3 µM (inactive); in the test on OVCAR-8, 28.1 µM (inactive).

On to `COC1(OC)c2occc2C(=N)c2ccc(=O)oc21`, for which the GI50 in the test with 786-0 was > 100 µM (inactive); in the test on NCI-H226, > 100 µM (inactive); in the test with SR, 71.8 µM (inactive); in the test on HOP-92 it was > 100 µM (inactive); with ACHN, 92.3 µM (inactive); with T47D, > 100 µM (inactive). Further, the GI50 with UACC-62, in the test with MDA-MB-435, in the test with MDA-N, in the test on SNB-19, in the test on NCI-H460 and in the test with EKVX was > 100 µM (inactive) in each case. The GI50 is > 100 µM (inactive) with SW-620; 41.9 µM (inactive) in the test on SF-539; > 100 µM (inactive) in the test on Hs-578T; > 100 µM (inactive) with SK-MEL-28; > 100 µM (inactive) with RPMI-8226.

Regarding `Cn1c(=O)oc2cc(C(=O)CN3CCN(Cc4ccc5c(c4)OCO5)CC3)c(Cl)cc21`, the GI50 in the test with 786-0, with SR, in the test on ACHN, in the test on T47D, in the test with UACC-62 and with MDA-N was > 100 µM (inactive) each time. In addition, the GI50 in the test with SNB-19, with NCI-H460, in the test on SNB-75, in the test with SF-539, in the test on NCI/ADR-RES and in the test with Hs-578T was > 100 µM (inactive) throughout. For the same compound, the GI50 with RPMI-8226 was > 100 µM (inactive).

For the compound `O=C(c1ccco1)N(C(=O)N1CCCCC1)c1ccccc1`, the GI50 in the test with 786-0, in the test with NCI-H226, in the test on ACHN, in the test with UACC-62, with MDA-MB-435 and with MDA-N was > 100 µM (inactive) throughout. For the same compound, the GI50 with SNB-19, in the test on EKVX, in the test with SW-620, with SF-539, with NCI/ADR-RES and in the test with Hs-578T was > 100 µM (inactive) in each case. In addition, the GI50 in the test with SK-MEL-28, in the test with RPMI-8226 and with OVCAR-8 was > 100 µM (inactive) each time.

As for `CC(C)(C)OC(=O)N1CCCC1=O`, the GI50 in the test with 786-0, in the test with NCI-H226, in the test with SR, in the test with HOP-92, in the test with ACHN and in the test on T47D was > 10 µM (inactive) in each case. The GI50 in the test with UACC-62, in the test with MDA-MB-435, in the test on MDA-N, with SNB-19, with NCI-H460 and with EKVX was > 10 µM (inactive) in each case. The GI50 in the test on SW-620, with SNB-75, with SF-539, in the test with Hs-578T, in the test on SK-MEL-28 and with RPMI-8226 was > 10 µM (inactive) each time. The GI50 in the test with OVCAR-8 was > 10 µM (inactive).

For the compound `CC[C@]12CN3CCc4c([nH]c5ccccc45)[C@@](C(=O)OC)(c4cc5c(cc4OC)N(C)[C@H]4[C@@](O)(C(=O)OC)[C@H](OC(C)=O)[C@]6(CC)C=CCN7CC[C@]54[C@@H]76)CC(C3)[C@H]1O2` (stereo partly drawn) [VINLEUROSINE SULFATE], the GI50 in the test on 786-0 is < 0.01 µM (active); in the test on NCI-H226, 0.221 µM (active); in the test with HOP-92 it was 8.13 µM (inactive); in the test on ACHN, 1.33 µM (inactive); in the test on UACC-62 it was 0.0368 µM (active); in the test on MDA-MB-435 it was < 0.01 µM (active). Further, the GI50 in the test with MDA-N was < 0.01 µM (active); in the test with SNB-19, 0.0553 µM (active); with NCI-H460 it was < 0.01 µM (active); in the test on EKVX it was 10.8 µM (inactive); in the test with SW-620 it was < 0.0208 µM (active); in the test with SNB-75 it was 0.0716 µM (active). Further, the GI50 in the test with SF-539 is 0.039 µM (active); in the test with NCI/ADR-RES it was 16.1 µM (inactive); in the test on Hs-578T it was 0.108 µM (active); with SK-MEL-28, 0.254 µM (active); with RPMI-8226 it was 0.0581 µM (active); in the test on OVCAR-8, 0.449 µM (active).
